# Structures can show the parent of a compound that is named as a salt. Where two headings read alike, the source gives them in different places.
# Assays:
# [1] = tested on: Npas2-LacZ reporter gene (Npas2 expression); experiment: High throughput screening of FDA Approved Drug Library for Npas2-LacZ reporter expression; assay type: cell-based, mouse
# From the text: (§1) Mouse MSC carrying Npas2-LacZ reporter gene, as described by Hassan N, et al., PLoS One. 2017; 12(8):e0183359, which is incorporated by reference herein in its entirety, was immortalized using SV40 in order to accommodate a large-scale HTS. […] This cell system was used to screen FDA Approved Drug Library (1120 compounds). The same library was also screened for cell viability by Calcein AM Hoechst 33342 staining Cell migration assays using the Oris™ Pro Cell Migration Assay plate, as described by Joy M E et al., PloS one. 2014; 9(2):e88350, which is incorporated by reference herein in its entirety, was used for a high-throughput migration assay using human skin fibroblasts
# (§2) The combined Z score was used to identify hit compounds (Table 1).
# human skin fibroblasts = experiment: High-throughput cell migration assay (Oris Pro Cell Migration Assay plate) / standardized viability; assay type: cell-based
# From the text: as §1, §2
# Npas2-LacZ expression = experiment: High throughput screening of LOPAC1280 for Npas2-LacZ expression of mouse BMSC; assay type: cell-based; parameters: concentration or dose not given beside the values; conditions: Activity against negative controls in LOPAC screening; Npas2 downregulation
# From the text: FIGS. 13A-13C show an unbiased chemical genetics analysis was used to determine the molecular mechanisms underlying implant osseointegration. […] Hit compounds were identified as z-score >2.5 or <−2.5.
# Femur BMSC derived from Npas2−/− mouse was previously characterized for the expression of LacZ, as described by Hassan, N., et al., (2017) Titanium biomaterials with complex surfaces induced aberrant peripheral circadian rhythms in bone marrow mesenchymal stromal cells. PLoS One 12, e0183359, which is incorporated by reference herein in its entirety, which was used for high throughput screening of LOPAC 1280 (FIG. 13A). […] The validation study identified a total of 14 compounds (FIG. 13C), which were subjected to the chemical genetics analysis. […] By contrast, Npas2 down regulating compounds stimulate or accumulate cAMP, or induce cAMP response element binding (CREB) activation (Table 3).
# fibroblasts = conditions: in vitro, compared to vehicle; cited from earlier work
# [2] = Table 2, additional Npas2 expression suppressors
# [3] = Table 1, HTS of FDA Drug Library
# [4] = Table 1, combined Z score (product)
Compound,"NPAS2 Z Score [1, 2]",Migration (standardized viability) Z Score (human skin fibroblasts; [2]),also measured
"OCC(O)CN1CCN(c2ccccc2)CC1 (racemic) [Dropropizine (R,S)]",−2.27,−1.21,–
CCCCCC[C@H]1C(=O)O[C@H](C)[C@H](NC(=O)c2cccc(NC=O)c2O)C(=O)O[C@@H](C)[C@@H]1OC(=O)CC(C)C (stereo in doubt) [Antimycin A],–,–,"NPAS2 Z Score [1, 3]: −2.72; NPAS Z × ViabilityZ [1, 4]: −5.79; Migration (standardized viability) Z Score (human skin fibroblasts; [3]): 2.13"
"CC(C)NC[C@H](O)COc1ccc(CC(N)=O)cc1 [(S)-(-)-Atenolol, (S)-(−)-Atenolol]",–,–,NPAS2 Z Score [1]: −2
CC(=O)OC1CN2CCC1CC2.Cl (stereo not drawn) [Aceclidine Hydrochloride],−2.2,0.198,–
O=C(O)COC(=O)Cc1ccccc1Nc1c(Cl)cccc1Cl [Aceclofenac],−2.16,0.666,–
CCCNC(C)C(=O)Nc1c(C)csc1C(=O)OC.Cl (stereo not drawn) [Articaine hydrochloride],−2.02,−0.466,–
CN1[C@@H]2CC[C@H]1CC(OC(=O)C(CO)c1ccccc1)C2.CN1[C@@H]2CC[C@H]1CC(OC(=O)C(CO)c1ccccc1)C2.O.O=S(=O)(O)O (stereo partly drawn) [Atropine sulfate monohydrate],−2.04,–,"NpasZ × ViabilityZ ([1]; Table 2, combined Z score (product)): −0.3692"
CN(Cc1ccc(C(C)(C)C)cc1)Cc1cccc2ccccc12.Cl [Butenafine Hydrochloride],−2.02,0.239,–
NC(=O)OCC(O)COc1ccc(Cl)cc1 (stereo not drawn) [Chlorphensin carbamate],−2.36,−0.157,–
C[C@@H]1C[C@@H]([C@H](O)CC2CC(=O)NC(=O)C2)C(=O)[C@@H](C)C1 [Cycloheximide],−3.29,−4.91,–
COc1cccc2c1C(=O)c1c(O)c3c(c(O)c1C2=O)C[C@@](O)(C(C)=O)C[C@@H]3O[C@H]1CC(N)[C@H](O)C(C)O1.Cl (stereo partly drawn) [Daunorubicin hydrochloride],−2.45,−4.56,–
CCN(CC)C(=O)N1CCN(C)CC1.O=C(O)CC(O)(CC(=O)O)C(=O)O [Diethylcarbamazine citrate],−2.36,−2.08,–
O=C(OC1C[C@@H]2CC3C[C@H](C1)N2CC3=O)c1c[nH]c2ccccc12 (stereo partly drawn) [Dolasetron mesilate],−2.64,−1.91,–
"C[C@H]1CCC/C=C/[C@@H]2C[C@H](O)C[C@H]2[C@H](O)/C=C/C(=O)O1 [Down01, Brefeldin A]",–,–,% Activity (Npas2-LacZ expression): −45.4%
"COc1cc2c(c(OC)c1OC)-c1ccc(OC)c(=O)cc1[C@@H](NC(C)=O)CC2 [Down03, Colchicine]",–,–,% Activity (Npas2-LacZ expression): −29.7%
"CC[n+]1c(/C=C/C=C2/N(C)c3ccccc3C2(C)C)sc2ccccc21.[I-] [Down06, AC-93253 iodide]",–,–,% Activity (Npas2-LacZ expression): −25.1%
"c1ccc2c(c1)[I+]c1ccccc1-2 [Down08, Diphenyleneiodonium chloride]",–,–,% Activity (Npas2-LacZ expression): −18.6%
"COc1cc([C@@H]2c3cc4c(cc3[C@H](O)[C@H]3COC(=O)[C@H]23)OCO4)cc(OC)c1OC [Down10, Podophyllotoxin]",–,–,% Activity (Npas2-LacZ expression): −15.6%
"C/C=C(/C)C(=O)O[C@H]1C(C)=C2[C@H]([C@@H]1OC(=O)CCCCCCC)[C@@](C)(OC(C)=O)C[C@H](OC(=O)CCC)[C@@]1(O)[C@H]2OC(=O)[C@@]1(C)O [Down12, THAPSIGARGIN]",–,–,% Activity (Npas2-LacZ expression): −43.5%
"CCN(CC)CCOc1ccc(Nc2ncc3cc(-c4c(Cl)cccc4Cl)c(=O)n(C)c3n2)cc1 [Down13, PD-166285 hydrate]",–,–,% Activity (Npas2-LacZ expression): −35.5%

Compound,"NPAS2 Z Score [1, 2]",Migration (standardized viability) Z Score (human skin fibroblasts; [2]),also measured
"Cn1c(=O)c(-c2c(Cl)cccc2Cl)cc2cnc(Nc3ccc(N4CCOCC4)cc3)nc21 [Down14, PD-173952]",–,–,% Activity (Npas2-LacZ expression): −33.0%
Clc1ccc(COC(Cn2ccnc2)c2ccc(Cl)cc2Cl)cc1 (stereo not drawn) [Econazole nitrate],−2.41,0.805,–
C[C@]12CC[C@@H]3c4ccc(O)cc4CC[C@H]3[C@@H]1CCC2=O [Estrone],−2.01,−2.56,–
O=[N+]([O-])O[C@@H]1CO[C@H]2[C@@H]1OC[C@@H]2O [Isosorbide mononitrate],−2.01,0.647,–
"S=c1nc[nH]c2nc[nH]c12 [MS-1500387, Mercaptopurine]",−2.08,0.577,–
"CCOC(=O)[C@H](CCc1ccccc1)N[C@@H](C)C(=O)N1CCC[C@H]1C(=O)O [MS-1501214, enalapril maleate]",−3.22,−1.53,–
Cl.NCc1ccc(S(N)(=O)=O)cc1 [Mafenide hydrochloride],−2.8,−0.188,–
"CCN(CC)CCNC(=O)COc1ccc(OC)cc1.Cl [Mefexamide hydrochloride, mefexamide hydrochloride]",–,–,"NPAS2 Z Score [1, 3]: −2.06; NPAS Z × ViabilityZ [1, 4]: −2.31; Migration (standardized viability) Z Score (human skin fibroblasts; [3]): 1.12"
CCc1c(C)[nH]c2c1C(=O)C(CN1CCOCC1)CC2.Cl (stereo not drawn) [Molindone hydrochloride],–,–,"NPAS2 Z Score [1, 3]: −2.1; NPAS Z × ViabilityZ [1, 4]: −2.56; Migration (standardized viability) Z Score (human skin fibroblasts; [3]): 1.22"
CC[C@@]1([C@@H]2OC(C3O[C@@](O)(CO)[C@H](C)C[C@@H]3C)C[C@@H]2C)CC[C@H]([C@]2(C)CC[C@@]3(C[C@H](O)[C@@H](C)C([C@@H](C)[C@@H](OC)[C@H](C)C(=O)O)O3)O2)O1 (stereo partly drawn) [Monensin sodium salt],−4.34,−8.13,–
Cc1c(NC(=O)c2cccnc2)c(=O)n(-c2ccccc2)n1C [Nifenazone],−2.41,−0.243,–
"O=C(O)c1cccnc1Nc1cccc(C(F)(F)F)c1 [Niflumic Acid, Niflumic acid]",–,–,"NPAS2 Z Score [1, 3]: −1.99; NPAS Z × ViabilityZ [1, 4]: −3.56; Migration (standardized viability) Z Score (human skin fibroblasts; [3]): 1.79"
O=C(N/N=C/c1ccc([N+](=O)[O-])o1)c1ccc(O)cc1 [Nifuroxazide],−3.43,−0.402,–
CC[C@H](C)C(=O)O[C@H]1C[C@H](O)C=C2C=C[C@H](C)[C@H](CC[C@@H](O)C[C@@H](O)CC(=O)O)[C@H]21 [Pravastatin],−2.16,0.64,–
C[C@]12C=CC(=O)C=C1CC[C@@H]1[C@@H]2[C@@H](O)C[C@@]2(C)[C@H]1CC[C@]2(O)C(=O)CO [Prednisolone],−2.42,−2.31,–
"CNCC[C@@H](Oc1ccccc1C)c1ccccc1 [SAM001246626, Atomoxetine hydrochloride]",−2.6,−0.749,–
Cn1cnc2c1c(=O)[nH]c(=O)n2C [Theobromine],−2.04,−0.6,–
CN1C(=O)OC(C)(C)C1=O [Trimethadione],−2.74,−0.105,–
NCCc1c[nH]c2ccc(O)cc12 [serotonin],–,–,Width of scratch zone (fibroblasts): reduced
Tyloxapol,–,–,NPAS2 Z Score [1]: −2.39; NpasZ × ViabilityZ [1]: −1.367; Migration (standardized viability) Z Score (human skin fibroblasts): 0.572
